{"source": "patent US12220404B2", "about": "“Treatment and management of augmentation in restless legs syndrome” (East Carolina University, priority 2015, dated 2025)", "key": {"[1]": {"test_system": "isolated spinal cord (monosynaptic stretch reflex)", "test": "Spinal reflex amplitudes (SRAs) in the isolated spinal cord", "set-up": "species or system mice", "experimental": "Animals will be anesthetized with ketamine/xylazine and decapitated, and the spinal cord carefully dissected out of the body cavity and placed in a Sylgard-lined (Dow Corning, Midland MI) Petri dish in cooled (<4° C.) artificial cerebrospinal fluid (ACSF) containing (in mM); 125 NaCl, 2.5 KCl, 2 CaCl2, 1 MgCl2, 25 glucose, 1.25 NaH2PO4, and 26 NaHCO3 at a pH of 7.4, oxygenated with 95% O2-5% CO2. After opening and removing the dura mater, to facilitate the access of ACSF to the cord, dorsal and ventral roots will be identified and pinned out with small insect pins. Preparations will either be left intact (in animals less than 7 days old) or hemisected mid-sagittally (>1 week old animals). The hemisection in the older animals helps better oxygenate the tissue and extends the life expectancy of the isolated preparation. Under these conditions, we can hold the spinal cord functionally alive for more than 24 hours, and we have been able test SRAs in individual preparations for up to 48 hours. After a 30-60 min recovery at room temperature, glass suction electrodes will be placed on the distal parts of dorsal and ventral roots of lumbar segments L2-L5. […] For the analyses, reflex responses will be rectified and the calculated integrals of these responses measured and compared between epochs of identical duration before and after drug application. For short-term assessments of drug effects, we will average the last ten consecutive SRAs measured before drug application with the last ten consecutive SRAs after 30 min of application of the drugs per epoch. […]\nStatistical Analysis: For the experiments on the isolated spinal cords, we will measure SRAs under control and drug conditions, and data will be averaged and normalized to the mean of the pre-drug values. Statistical significance will be determined with One-Way ANOVA and subsequent post-hoc comparisons or t-tests, as appropriate, and with a set <0.05 (SigmaPlot, Systat, San Jose, CA)."}, "[2]": {"test_system": "wild type (WT) animals", "test": "Thermal pain withdrawal reflex latencies (Hargreaves apparatus)", "type": "in vivo, mice", "conditions": "for thermal withdrawal latencies: WT, pramipexole 0.5 mg/kg, SCH 39166 0.1 mg/kg", "experimental": "Assessment of baseline pain withdrawal reflex latencies (“thermal pain”): RLS is first and foremost a sensory disorder that is accompanied by a motor component. The clinical sensations (“urge to move”) stem from deep muscle tissues and are considered “painful” by many, if not most patients, unless acted on immediately (moving of the limbs). Pain from deep muscles is carried by both unmyelinated C-fibers (both peptidergic and non-peptidergic) as well as a-∂ fiber. Pain due to thermal stimulus energy is carried specifically by subsets of these nociceptors that express the transient receptor potential-V1 protein (TRPV1). These TRPV1 expressing nociceptors also have extensive cutaneous distribution and are easily activated by a heat source applied to the surface of the skin. Thus the thermal pain stimulus tested in the Hargreaves apparatus (IITC, Inc., Life Science, Model 39D) provides an appropriate surrogate for monitoring changes in deep muscle nociceptor activity that may be present in RLS, and the latencies to withdraw the hindpaw from a noxious thermal stimulus applied to the plantar surface of the hindpaw provide a measure of pain sensitivity. Animals will be removed from their home cages and placed individually in the small Plexiglas containers of the Hargreave's system (4″ width×4″ length×5″ height). The behavior room has optional low light settings to minimize visual perturbations. Each day, animals will be acclimatized on the Hargreaves platform for 1-2 hrs. Subsequently, baseline withdrawal latencies will be determined for each animal, with five independent trials performed per hindpaw per session and a mean latency calculated for each day. The tests will be administered over 4 days.\nDrug injection protocol: After establishing baseline parameters, each animal will receive in weeks 1-4 once daily a single-drug i.p. injection of the respective compound: 0.9% NaCl (sham), the D3R agonist (pramipexole) at 0.1 or 0.5 mg/kg, or the D1R antagonist ecopipam ([…]) at 0.1 mg/kg, and tested for thermal pain withdrawal tolerance (details in flow chart, FIG. 5). […] Each cohort will be treated independently of each other, but all animals will receive their respective i.p. injections daily (7 days/week) between 9-11 am in the morning, to avoid possible conflicts with the circadian cycle. Thermal pain withdrawal reflexes will be tested as above on 4 subsequent days per week in the afternoon, starting on the second day of the drug injections. Subgroups a) of each cohort will be euthanized after 1 week, with subgroups b)-d) following suite in 1-week intervals (FIG. 5).\nStatistical Analysis: For the behavioral experiments, withdrawal latencies under drug conditions will be averaged and normalized to the mean of the pre-drug values, and statistical significance will be determined with RM ANOVA and subsequent post-hoc comparisons, as appropriate, and with a set <0.05 (SigmaPlot, Systat, San Jose, CA). For the data analysis of the Western blots, we will use One-way ANOVA testing to assess significance, and identify group differences with appropriate post-hoc comparisons (e.g. Holm-Sidak)."}, "[3]": {"conditions": "short-term bath application (less than 30 min)"}}, "note": "Entries after “also recorded” stand apart in the source; their conditions may differ.", "data": [{"smiles": "CN1CCc2cc(Cl)c(O)cc2[C@H]2c3ccccc3CC[C@@H]21", "note": "[SCH 39166, ecopipam]", "values": [{"measurement": "spinal reflex amplitudes (SRAs)", "setting": "[1]; additional bath-application after prolonged pramipexole exposure", "result": "decreased"}, {"measurement": "thermal withdrawal latencies", "setting": "[2]; acute treatment", "result": "131+/−6.5 % of control"}, {"measurement": "acute modulation of thermal withdrawal responses (FIG. 2)", "setting": "[2]; acute treatment, result in words", "result": "increase withdrawal latencies"}, {"measurement": "withdrawal latencies after single injection of D1R antagonist", "setting": "[2]; animals treated for 4 weeks with pramipexole, 1 hour post-injection", "result": "150.+/−15%"}, {"measurement": "long-term effect on withdrawal latencies", "setting": "[2]; daily for 4 weeks, current data sets, result in words", "result": "does not have a significant effect"}, {"measurement": "withdrawal latencies after single injection of D1R antagonist", "setting": "[2]; non-treated group, week 1, one hour after the injection", "result": "151 +/−13%"}]}, {"smiles": "Oc1cc2c(cc1O)C(c1ccccc1)CNCC2", "note": "(stereo not drawn) [SKF 38393]", "values": [{"measurement": "spinal reflex amplitudes (SRAs)", "setting": "[1]; [3]", "result": "significantly increased them; also recorded: increases SRAs"}]}, {"smiles": "CCCN1C[C@H](CSC)C[C@@H]2c3cccc4[nH]cc(c34)C[C@H]21", "note": "[pergolide]", "values": [{"measurement": "spinal reflex amplitudes (SRAs)", "setting": "[1]; [3]", "result": "significantly decreased SRAs; also recorded: significantly decreases SRAs over control"}]}, {"smiles": "CCCN[C@H]1CCc2nc(N)sc2C1", "note": "[pramipexole]", "values": [{"measurement": "thermal withdrawal latencies", "setting": "[2]; acute treatment", "result": "152.9+/−2.8 % of control"}, {"measurement": "post-injection withdrawal latencies", "setting": "[2]; after 4 weeks of daily injections with pramipexole, 1 hr post-injection", "result": "75.2+/−32%"}, {"measurement": "post injection withdrawal latencies", "setting": "[2]; week 1, one hour after the first injection, 0.5 mg/kg pramipexole", "result": "194.65%±27"}, {"measurement": "withdrawal latencies to a thermal stimulus, weekly average", "setting": "[2]; week 1, pramipexole 0.5 mg/kg/day chronic injections", "result": "204.81%±6.3 % of control"}, {"measurement": "withdrawal latencies to a thermal stimulus, weekly average", "setting": "[2]; week 2, pramipexole 0.5 mg/kg/day chronic injections", "result": "158+/−12 % of control"}, {"measurement": "withdrawal latencies to a thermal stimulus, weekly average", "setting": "[2]; week 3, pramipexole 0.5 mg/kg/day chronic injections", "result": "135+/−6.5 % of control"}, {"measurement": "withdrawal latencies to a thermal stimulus, weekly average", "setting": "[2]; week 4, pramipexole 0.5 mg/kg/day chronic injections", "result": "85+/−11 % of control"}]}]}
